The results in this text go back to ChEMBL document CHEMBL5107966, “Cascade synthetic strategies opening access to medicinal-relevant aliphatic 3- and 4-membered N-heterocyclic scaffolds” (Eur J Med Chem, 2022).

Values after ≈ are worked out from the molar mass of the structure shown.

One may read the MIC as the lowest concentration found to suppress growth. A word on the IC50: it is the point on the concentration scale where inhibition reaches its midpoint. The EC50 is the midpoint of the concentration-response curve.

One experiment has as its system Escherichia coli. Description: Antimicrobial activity against Escherichia coli ATCC 8739. Format: functional.
Experiment [1] concerns Pseudomonas aeruginosa. Nature of the experiment: Antimicrobial activity against Pseudomonas aeruginosa MCCB 0035. Format: functional.
Experiment [2] concerns Staphylococcus aureus. Description: Antimicrobial activity against Staphylococcus aureus ATCC 29213. The experiment is classed as functional.
In another experiment the test system is Aspergillus niger. Nature of the experiment: Antimicrobial activity against Aspergillus niger […]. Format: functional.
For a further experiment, the system named is Candida albicans. Description: Antimicrobial activity against Candida albicans NCIM 2087. The experiment is classed as functional.
Another experiment concerns Aspergillus fumigatus. Description: Antimicrobial activity against Aspergillus fumigatus NCIM 2081. Format: functional.
The subject of experiment [3] is RAW264.7. Description: Inhibition of NO release in mouse RAW264.7 incubated for 15 mins by fluoroscence-luminescence reader infinite M200 Pro analysis. Format: functional, cell-based. The following applies: RAW264.7, 0.25 h.
Experiment [4] deals with RAW264.7. Description: Cytotoxicity against mouse RAW264.7 by WST-1 vital dye reagent method. The experiment is classed as functional, cell-based. Background: Formazan colour is commonly taken as a measure of viable cells.
Experiment [5] deals with HCT-116. Nature of the experiment: Cytotoxicity against human HCT-116 cells assessed as cell viability incubated for 24 hrs by MTT assay. Format: functional, cell-based. The following applies: HCT-116, 24 h.
Another experiment deals with A2780. Description: Cytotoxicity against human A2780 cells. Format: functional, cell-based.
For experiment [6], the system named is HCT-116. Description: Cytotoxicity against human HCT-116 cells. The experiment is classed as functional, cell-based.
The test system of the next experiment is HeLa. Description: Cytotoxicity against human HeLa cells.
For a further experiment, the system named is A549. Nature of the experiment: Cytotoxicity against human A549 cells.
In another experiment the test system is Enterococcus faecium. Description: Antimicrobial activity against Enterococcus faecium incubated for 18 to 24 hrs. Format: functional. As to conditions: time 18-24 hrs.
The subject of a further experiment is Enterobacter cloacae. Description: Antimicrobial activity against Enterobacter cloacae incubated for 18 to 24 hrs. Format: functional. The following applies: time 18-24 hrs.
The test system of experiment [7] is Staphylococcus aureus. Description: Antimicrobial activity against Staphylococcus aureus incubated for 18 to 24 hrs. The experiment is classed as functional. The following applies: time 18-24 hrs.
Experiment [8] has as its system Pseudomonas aeruginosa. Description: Antimicrobial activity against Pseudomonas aeruginosa incubated for 18 to 24 hrs. Format: functional. As to conditions: time 18-24 hrs.
Another experiment concerns HepG2. Nature of the experiment: Antiproliferative activity against human HepG2 cells assessed as reduction in cell viability incubated for 72 hrs by CCK-8 assay. The experiment is classed as functional, cell-based. As to conditions: HepG2, 72 h.
The next experiment relates to U-251. Description: Antiproliferative activity against human U-251 cells assessed as reduction in cell viability incubated for 72 hrs by CCK-8 assay. As to conditions: U-251, 72 h. Format: functional, cell-based.
Another experiment has as its system A-431. Nature of the experiment: Antiproliferative activity against human A-431 cells assessed as reduction in cell viability incubated for 72 hrs by CCK-8 assay. The experiment is classed as functional, cell-based. As to conditions: A-431, 72 h.
The subject of experiment [9] is HCT-116. Description: cells. As to conditions: Homo sapiens, HCT-116, 72 h.

On to `Cc1ccc(S(=O)(=O)N2C(=O)C(Cl)[C@H]2c2ccccc2F)cc1` (some centres not stated), for which the MIC against Escherichia coli turned out to be 4 µg/mL (≈ 11.3 µM); in the experiment on Pseudomonas aeruginosa [1], 32 µg/mL (≈ 90.4 µM); against Staphylococcus aureus [2] it was 4 µg/mL (≈ 11.3 µM); against Aspergillus niger it was 16 µg/mL (≈ 45.2 µM); in the experiment with Candida albicans, 16 µg/mL (≈ 45.2 µM); in the experiment on Aspergillus fumigatus, 4 µg/mL (≈ 11.3 µM).
As for `O=C1[C@@H](Oc2ccc(Cl)cc2)[C@@H](c2ccccc2[N+](=O)[O-])N1N1CCOCC1`, the values for the IC50 in the experiment on RAW264.7 [3] and in the experiment on RAW264.7 [4] were 7.92 µM and greater than 500 µM, respectively.
`CC[C@@]1(O)C(=O)OCc2c1cc1n(c2=O)Cc2cc3ccccc3nc2-1` [CAMPTOTHECIN]: the IC50 in the experiment on HCT-116 [5] amounted to 0.00201 µM.
As for `Clc1ccccc1C(c1ccccc1)(c1ccccc1)n1ccnc1` [CLOTRIMAZOLE], the results for the MIC in the experiment with Aspergillus niger, against Candida albicans and in the experiment with Aspergillus fumigatus were 16 µg/mL (≈ 46.4 µM), 4 µg/mL (≈ 11.6 µM) and 1 µg/mL (≈ 2.9 µM), respectively.
In the case of `CCOP(=O)(O)C1CN1C1CCCCC1` (configuration not stated), the IC50 in the experiment on HCT-116 [5] turned out to be 16.1 µM.
`COc1ccc(C2NC2c2cc(OC)c(OC)c(OC)c2)cc1` (configuration not stated): the IC50 with A2780 turned out to be 4.68 µM; in the experiment with HCT-116 [6], 5.44 µM; in the experiment on HeLa it was 4.93 µM; in the experiment with A549, 8.74 µM.
Regarding `CCOP(=O)(O)C1CN1C(C)c1ccc2ccccc2c1` (configuration not stated), in the experiment on HCT-116 [5], the IC50 came to 12.3 µM.
As for `Cc1ccc(S(=O)(=O)N2C(=O)C(Cl)[C@H]2c2cccc(F)c2)cc1` (some centres not stated), the MIC in the experiment on Escherichia coli is 2 µg/mL (≈ 5.65 µM); with Pseudomonas aeruginosa [1], 16 µg/mL (≈ 45.2 µM); with Staphylococcus aureus [2] it was 8 µg/mL (≈ 22.6 µM); in the experiment with Aspergillus niger, 16 µg/mL (≈ 45.2 µM); against Candida albicans, 8 µg/mL (≈ 22.6 µM); against Aspergillus fumigatus, 16 µg/mL (≈ 45.2 µM).
On to `O=C(O)C1N=C1c1ccccc1` (configuration not stated), for which the MIC against Enterococcus faecium, against Enterobacter cloacae, in the experiment with Staphylococcus aureus [7] and in the experiment on Pseudomonas aeruginosa [8] was 9 µg/mL (≈ 55.8 µM) each time.
As to `CC1(C)S[C@@H]2[C@H](NC(=O)[C@H](N)c3ccccc3)C(=O)N2[C@H]1C(=O)O` [AMPICILLIN], the MIC against Escherichia coli was determined as 1 µg/mL (≈ 2.86 µM); against Pseudomonas aeruginosa [1] it was 4 µg/mL (≈ 11.4 µM); against Staphylococcus aureus [2], 2 µg/mL (≈ 5.72 µM).
For `Cc1cc(NS(=O)(=O)c2ccc(N)cc2)no1` [SULFAMETHOXAZOLE], the MIC with Enterococcus faecium stood at 4 µg/mL (≈ 15.8 µM); against Enterobacter cloacae, 8 µg/mL (≈ 31.6 µM); in the experiment with Staphylococcus aureus [7], 16 µg/mL (≈ 63.2 µM); in the experiment with Pseudomonas aeruginosa [8], 8 µg/mL (≈ 31.6 µM).
As for `Cc1ccc(S(=O)(=O)N2C(=O)C(Cl)[C@H]2c2ccc(F)cc2)cc1` (some centres not stated), the MIC in the experiment with Escherichia coli amounted to 0.5 µg/mL (≈ 1.41 µM); in the experiment with Pseudomonas aeruginosa [1] it was 4 µg/mL (≈ 11.3 µM); against Staphylococcus aureus [2], 1 µg/mL (≈ 2.83 µM); with Aspergillus niger, 8 µg/mL (≈ 22.6 µM); in the experiment with Candida albicans, 2 µg/mL (≈ 5.65 µM); against Aspergillus fumigatus, 2 µg/mL (≈ 5.65 µM).
Turning to `COc1cc([C@@H]2c3cc4c(cc3[C@@H](O[C@@H]3O[C@@H]5CO[C@@H](C)O[C@H]5[C@H](O)[C@H]3O)[C@H]3COC(=O)[C@H]23)OCO4)cc(OC)c1O` [ETOPOSIDE], in the experiment on HCT-116 [5], the 50% inhibitory concentration (IC50) stood at 26.1 µM.
On to `Nc1cccc([C@@H]2[C@H](Oc3ccc4ccccc4c3)C(=O)N2CCCN2CCOCC2)c1`, for which the IC50 with RAW264.7 [3] is 5.73 µM; with RAW264.7 [4], greater than 500 µM.
On to `COc1cccc2c1C(=O)c1c(O)c3c(c(O)c1C2=O)C[C@@](O)(C(=O)CO)C[C@@H]3O[C@H]1C[C@H](N)[C@H](O)[C@H](C)O1` [DOXORUBICIN], for which the EC50 turned out to be 0.67 µM with HepG2, 0.07 µM with U-251, 0.7 µM in the experiment with A-431 and 0.16 µM in the experiment on HCT-116 [9].
The corresponding values for `COc1cc(-c2cc(C3CN(c4cccc(C#N)n4)C3)ccc2OC)ccn1` are 0.46 µM, 1.2 µM, 0.7 µM and 15 µM.
Take `CCOP(=O)(O)C1CN1Cc1ccccc1` (configuration not stated): in the experiment on HCT-116 [5], the IC50 amounted to 7.79 µM.
With `COc1ccc(C2CN(c3cccc(C#N)n3)C2)cc1-c1ccnc(N)c1`, the EC50 came out at 5.66 µM with HepG2, 0.03 µM with U-251 and 0.36 µM in the experiment on HCT-116 [9].
Take `O=C1[C@@H](Oc2ccc(Cl)cc2Cl)[C@@H](c2ccc([N+](=O)[O-])cc2)N1CCCN1CCOCC1`: the 50% inhibitory concentration (IC50) in the experiment on RAW264.7 [3] was determined as 4.14 µM; in the experiment with RAW264.7 [4] it was 291 µM.
As for `Cc1ccc(C(OC(=O)C2N=C2c2ccccc2Br)C(=O)NC(C)(C)C)cc1` (configuration not stated), the MIC was 16 µg/mL (≈ 36.1 µM) against Enterococcus faecium, 75 µg/mL (≈ 169 µM) in the experiment on Enterobacter cloacae, 16 µg/mL (≈ 36.1 µM) against Staphylococcus aureus [7] and 150 µg/mL (≈ 338 µM) in the experiment on Pseudomonas aeruginosa [8].
